Our source for the GI50 and TGI values is PubChem BioAssay (NCI).

Common to all, as to assay: NCI-60 cell line screen, 48 h
Assay [1] has as its system BT-549 breast.
For assay [2], the system named is DU-145 prostate.
Assay [3] relates to KM12 colon.
In assay [4] the test system is MALME-3M melanoma.
Assay [5] has as its system NCI-H522 lung.
Assay [6] has as its system RXF 393 renal.
Assay [7] concerns SK-MEL-28 melanoma.
Assay [8] concerns SN12C renal.
The test system of assay [9] is U251 CNS.
The subject of assay [10] is UACC-257 melanoma.

Several values for one entry are separate records, joined by “and”; a condition that tells them apart may be missing. Identical values can stand only once.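 Following 48 hours of exposure in 96-well plates, responses at five concentrations were used to interpolate endpoints linearly. At the GI50, growth is halved. TGI: concentration producing complete growth inhibition.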 Bounds are passed on as bounds.

In the case of `COc1ccc(CNc2nc3cc(N)cc(N)c3nc2-c2ccccc2)cc1OC`, the GI50 was 14.8 µM in assay [1]; 41 µM in assay [2]; 12.8 µM in assay [3]; 3.98 µM in [4]; 8.16 µM in [5]; 12.7 µM in assay [6]. Also, the GI50 was 15 µM in [7], 14 µM in [8], 17.3 µM in assay [9] and 14.7 µM in [10]. Moreover, the TGI in assay [1] is 32.5 µM; in assay [2], over 93.6 µM; in assay [3], 28.4 µM; in assay [4] it was 14.4 µM; in [5], 24.6 µM; in assay [6], over 93.5 µM. In addition, the TGI in assay [7] was determined as 33.8 µM; in assay [8], 27.9 µM; in [9], 38.1 µM; in assay [10] it was 29.2 µM.
Consider `CCOC(=O)Cc1csc(/N=C2\NC(=O)/C(=C3\C(=O)N(C)c4ccccc43)S2)n1`, for which the GI50 in assay [1] was 48.4 µM; in assay [2] it was 41.4 µM; in [3], 23.3 µM; in assay [4], 21.8 µM; in assay [5], 24.8 µM; in [6], 73.3 µM. Besides, the GI50 in assay [7] is 80.3 µM; in assay [8] it was 31 µM; in assay [9] it was 33.6 µM; in assay [10] it was 79.1 µM. Further, the TGI in [1] was over 100 µM; in [2] it was over 100 µM; in assay [3], 83.8 µM; in [4], 95.2 µM; in [5], 93.3 µM; in assay [6], over 100 µM. In addition, the TGI in [7], in assay [8], in assay [9] and in [10] was over 100 µM each time.
For `N=C1c2nc3n(c2C(=O)c2nc4n(c21)CCCC4)CCCC3`, the GI50 in assay [1] was 2.22 µM; in [2], 1.5 µM; in assay [3], 16.6 µM; in assay [4], 1.7 µM; in assay [5] it was 4.17 µM; in assay [6], 15.8 µM. Further, the GI50 was 1.84 µM in assay [7], 1.58 µM in [8], 5.75 µM in [9] and 1.67 µM in assay [10]. For the same molecule, the TGI is 4.94 µM in [1]; 2.9 µM in assay [2]; over 100 µM in assay [3]; 3.7 µM in [4]; 26.1 µM in [5]; 51 µM in assay [6]. For the same molecule, the TGI in [7] stood at 3.7 µM; in assay [8], 3.12 µM; in [9] it was 48.7 µM; in assay [10], 4.81 µM.
For the molecule `Cc1ncc([N+](=O)[O-])n1CCNS(=O)(=O)CCCn1ccnc1[N+](=O)[O-]`, the TGI in assay [1], in [2], in [3], in assay [4], in [5] and in assay [6] was over 100 µM in each case. The TGI in assay [7], in assay [8], in [9] and in [10] was over 100 µM in each case.
With `COc1ccc(/C=C\c2cc(OC)c(OC)c(OC)c2)cc1OC(=O)C(N)CCC(=O)O` (stereo not given), the TGI is 0.00299 µM in assay [1]; 0.0073 µM in assay [3]; over 59 µM in assay [7]; over 100 µM in assay [8]; 22.8 µM in assay [10]. Besides, the GI50 in assay [2] is 0.000364 µM and 0.000444 µM and < 0.0001 µM; in assay [3], 0.00156 µM; in assay [4] it was 0.00136 µM; in assay [5], 0.00114 µM and 0.000248 µM; in assay [6] it was 4.67e-05 µM; in assay [9], 0.000543 µM and 0.000132 µM. Further, the GI50 in [10] was 0.000603 µM.
Turning to `N#CC1=C(N)N=C(N2CCCCC2)C(C#N)C12Nc1ccccc1S2` (stereo not given), the GI50 in [1] was 33.3 µM; in assay [2] it was 43 µM; in assay [3], 25.6 µM; in assay [4], 47.2 µM; in assay [5], 22.2 µM; in assay [6] it was 27 µM. The GI50 in [7] is 26.6 µM; in [8], 24.8 µM; in [9] it was 17 µM; in [10], 20.9 µM. Moreover, the TGI is over 100 µM in assay [1]; over 100 µM in [2]; over 100 µM in assay [3]; over 100 µM in [4]; 56.8 µM in assay [5]; 65.1 µM in assay [6]. Further, the TGI in assay [7] is over 100 µM; in [8], over 100 µM; in [9], over 100 µM; in assay [10], 51 µM.
For the molecule `CC(C)(C)C(=O)Nc1ccccc1I(=O)=O`, the GI50 in [1], in [2], in [3], in [4], in assay [5] and in assay [6] was over 100 µM throughout. For the same molecule, the GI50 in assay [7], in assay [8], in assay [9] and in [10] was over 100 µM throughout. Besides, the TGI in [1], in [2], in assay [3], in assay [4], in [5] and in [6] was over 100 µM in each case. In addition, the TGI in assay [7], in assay [8], in assay [9] and in assay [10] was over 100 µM each time.
For `CCCCCCCCCNCCCCCCCCC`, the GI50 in assay [1] is 1.93 µM; in assay [2], 1.85 µM; in assay [3], 1.83 µM; in assay [4] it was 1.91 µM; in assay [5], 1.54 µM; in [6] it was 1.81 µM. For the same molecule, the GI50 in assay [7] was 1.76 µM; in assay [8], 1.59 µM; in assay [9], 1.71 µM; in [10] it was 1.93 µM. The TGI in assay [1] came to 3.38 µM; in assay [2], 3.74 µM; in assay [3] it was 3.29 µM; in [4], 3.85 µM; in assay [5], 3.08 µM; in [6] it was 3.25 µM. In addition, the TGI in [7] came to 3.29 µM; in [8], 3.25 µM; in assay [9], 3.15 µM; in assay [10] it was 3.61 µM.
Consider `C=C1CC[C@@]2(C#N)[C@H]3[C@H](CC[C@@H]2C)[C@@H](C)C[C@@H](CC(C)(C)C#N)[C@H]13`, for which the GI50 is 1.23 µM in assay [1]; 0.337 µM in [2]; 0.471 µM in assay [3]; 5.23 µM in [4]; 10.8 µM in assay [5]; 5.85 µM in assay [6]. Besides, the GI50 in assay [7] is 2.63 µM; in assay [8], 5.71 µM; in assay [9], 2.86 µM; in assay [10], 8.3 µM. Besides, the TGI in [1] turned out to be 18.8 µM; in [2], 16.2 µM; in [3], 18.9 µM; in assay [4], 40.8 µM; in [5], 57.9 µM; in assay [6], 22.8 µM. Also, the TGI in [7] worked out at 44.2 µM; in [8], 64.8 µM; in assay [9] it was 29.8 µM; in assay [10], 56.4 µM.
`CC([C@H]1CCC2C3CCC4C[C@@H](NC=O)CC[C@]4(C)C3CC[C@@]21C)N(C)C` (stereo not given in full): the GI50 was 6.95 µM in [1]; 4.84 µM in assay [2]; 3.14 µM in [3]; 2.18 µM in assay [4]; 4.53 µM in [5]; 1.77 µM in [6]. In addition, the GI50 in assay [7] is 1.65 µM; in assay [8], 2.88 µM; in [9], 2.96 µM; in assay [10] it was 2.57 µM. In addition, the TGI was 25.1 µM in assay [1]; 17.5 µM in assay [2]; 12.6 µM in [3]; 4.83 µM in [4]; 17.6 µM in [5]; 4.15 µM in assay [6]. The TGI is 3.08 µM in assay [7], 13.7 µM in assay [8], 13.8 µM in assay [9] and 6.24 µM in [10].
In the case of `Cc1cc(C)c(O)c(CNCCCCCCNCc2cc(C)cc(C)c2O)c1`, the GI50 in [1] was 2.24 µM; in assay [2], 1.7 µM; in assay [3] it was 1.82 µM; in [4], 1.6 µM; in assay [5] it was 1.78 µM; in assay [6], 1.59 µM. Also, the GI50 was 1.66 µM in assay [7], 1.83 µM in assay [8], 1.58 µM in assay [9] and 2.07 µM in assay [10]. For the same molecule, the TGI was 5.52 µM in assay [1]; 3.3 µM in assay [2]; 3.51 µM in assay [3]; 3.17 µM in assay [4]; 3.67 µM in assay [5]; 3.08 µM in assay [6]. Further, the TGI was determined as 3.28 µM in assay [7], 3.92 µM in [8], 3.07 µM in [9] and 4.13 µM in assay [10].
With `CCN1C(=O)N(CC)C2C1NN=c1s/c(=C3\C(=O)N(CC(C)C)c4ccccc43)c(=O)n12` (stereo not given), the GI50 in assay [1] is 2.45 µM; in [2] it was 0.777 µM; in [3] it was 0.418 µM; in assay [4], 0.885 µM; in assay [5] it was 0.4 µM; in assay [6], 0.335 µM. In addition, the GI50 in [7] was 3.28 µM; in assay [8], 1.95 µM; in assay [9], 0.548 µM. Further, the TGI in assay [1] was over 100 µM; in assay [2] it was over 30.4 µM; in assay [3], over 100 µM; in [4] it was over 77.7 µM; in [6] it was 2.45 µM; in [7], over 100 µM. Also, the TGI in [8] is over 100 µM; in assay [9], 27.4 µM; in [10], over 100 µM.
Take `CN(C)CCCN=C(N)N`: the TGI in assay [1], in assay [2], in [3], in assay [4], in assay [5] and in assay [6] was over 100 µM throughout. Also, the TGI in assay [7], in assay [8], in [9] and in assay [10] was over 100 µM throughout.
In the case of `CC1(C)COCN1COC1CCCCC1`, the TGI in assay [1], in assay [2], in assay [3], in assay [4], in assay [5] and in [6] was over 100 µM each time. Besides, the TGI in assay [7], in assay [8], in assay [9] and in [10] was over 100 µM throughout.
As to `O=C1CCCCCCCC/C=C/CCC(c2ccco2)O1` (stereo not given), the GI50 in assay [1] was 37.1 µM; in [2], 57.2 µM; in assay [3], 20.7 µM; in assay [4] it was 6.7 µM; in assay [5], 37.7 µM; in assay [6], over 100 µM. Besides, the GI50 was 73.3 µM in [7], 31.7 µM in [8], 31.4 µM in assay [9] and over 100 µM in [10]. Further, the TGI is over 100 µM in assay [1]; over 100 µM in assay [2]; over 100 µM in assay [3]; 62.6 µM in assay [4]; over 100 µM in assay [5]; over 100 µM in assay [6]. Also, the TGI in [7], in [8], in assay [9] and in assay [10] was over 100 µM each time.
With `N#CC1=C(N)NC(=S)NC12Nc1ccccc1O2` (stereo not given), the GI50 was 48.2 µM in assay [1]; 55.1 µM in [2]; 27.1 µM in assay [3]; over 100 µM in assay [4]; 11.5 µM in [5]; over 100 µM in [6]. Also, the GI50 in [7] was 45.7 µM; in assay [8], 25.2 µM; in assay [9], 28.2 µM; in [10], 35.3 µM. Further, the TGI in [1] was over 100 µM; in assay [2], over 100 µM; in assay [3], over 100 µM; in assay [4], over 100 µM; in [5] it was 43.1 µM; in assay [6] it was over 100 µM. For the same molecule, the TGI in assay [7] is over 100 µM; in assay [8], 90 µM; in assay [9], over 100 µM; in assay [10] it was over 100 µM.
